Data as given in patent US20050277586A1, “Peptide chemically modified with polyethylene glycol” (priority 2002, published 2005).

How the values were obtained:
plasmid (pUC119) = assay: Binding ability to plasmid (agarose gel electrophoresis); conditions: charge ratio (±ratio) of 3
Procedure: The plasmid prepared by the procedure described in Example 7 (pUC119; final concentration, 20 μg/mL) and the peptides prepared by the procedure described in Examples 1 to 3 were mixed in 20 mM Tris HCl buffer (pH=7.2) containing 150 mM NaCl at a charge ratio (±ratio) of 0 to 3, and the mixture was allowed to stand at 37° C. for 30 minutes. Electrophoresis was then conducted on 1% agarose gel to thereby determine the binding of the plasmid and the peptide.
The ±ratio (charge ratio) indicated in FIG. 11 is the ratio of the number (+) of the positively-charged groups in the peptide to the number (−) of negatively-charged groups in the plasmid. As evident in FIG. 11, the amount of plasmid that became bound to the peptide increased with the increase in the charge ratio (±ratio), and the plasmid was fully bound to the peptide at a charge ratio (±ratio) of 3. The peptides of SEQ ID NO: 2 to SEQ ID NO: 24 were also found to bind at a charge ratio (±ratio) of 3.

nuclease Bal 31 = assay: Nuclease resistance-imparting ability for natural (P=O form) oligonucleotide; format: biochemical; conditions: 2 U Bal 31, 30° C., 60 minutes
Procedure: Nuclease resistance-imparting ability for natural (P═O form) oligonucleotide was evaluated. To be more specific, 2 U of nuclease Bal 31 (manufactured by Takara Shuzo) was added to 20 mM Tris-HCl buffer (pH=8) containing 50 μM of the peptide of SEQ ID NO: 1 prepared in Example 1, 3 μM of P═O form oligonucleotide prepared in Example 6, 150 mM NaCl, 12 mM MgCl2, and 12 mM CaC12, and the reaction was allowed to take place at 30° C. for 60 minutes. Next, the oligonucleotide which escaped from the decomposition was extracted with phenol/chloroform, and subjected to electrophoresis by the procedure described in Example 8 to stain the oligonucleotide.

[1] = target: phosphatidyl serine (binding of human Factor VIII); assay: Affinity for phosphatidyl serine (EIA, inhibition of human Factor VIII binding); conditions: in the presence of 5% BSA, human Factor VIII 1 μg/mL
Procedure: The specific affinity of the peptide for phosphatidyl serine was evaluated by measuring activity of the peptide for inhibiting the binding of the human Factor VIII to phosphatidyl serine by using human Factor VIII which is known to bind to phosphatidyl serine but not to phosphatidyl choline in the presence of serum albumin. To be more specific, 100 μL of ethanol solution containing 10 μg/mL of phospholipids at a phosphatidyl serine (manufactured by SIGMA): phosphatidyl choline (manufactured by SIGMA) ratio of 3:7 was added to the wells of a 96 well plate (Immulon I, manufactured by Dynatech), and exsiccated by using a centrifugal evaporator (EC-95C, manufactured by Sakuma Seisakusho) at 40° C. for 40 minutes. 200 μL each of TBS (10 mM Tris-HCl (pH 7.4) containing 1% bovine serum albumin (BSA Fraction V, hereinafter referred to as BSA, manufactured by Seikagaku Corporation) and 0.9% (W/V) NaCl solution were added to each well, and the wells were blocked by allowing the plate to stand at 37° C. for 2.5 hours. After washing the plate with water, 100 μL of TBS solution supplemented with 5% BSA mixed with human Factor VIII (manufactured by American Diagnostica) at a final concentration 1 μg/mL and the peptide of predetermined dose prepared in Example 1 was added to each well, and the reaction was allowed to take place at 4° C. for 24 hours.
After the completion of the reaction, the human Factor VIII that became bound to the phosphatidyl serine was measured by enzyme immunoassay (EIA) in accordance with the general procedure described in a book (“Enzyme Immunoassay (3rd ed.)”, Eiji Ishikawa et al., Igaku-Shoin, 1987). To be more specific, the measurement was conducted by using anti-human Factor VIII mouse monoclonal antibody (ESH8, manufactured by American Diagnostica) for the primary antibody, horseradish peroxidase-labeled anti-mouse IgG antibody (P0260, manufactured by Daco) for the secondary antibody, and tetramethylbenzidine for the chromogenic substrate, and measuring the absorption at a wavelength of 450 nm by using a reference wavelength of 630 nm on a spectrophotometer (NJ-2100, manufactured by Intermed).
Intensity of the affinity of the peptide for the phosphatidyl serine was evaluated by using the value obtained by subtracting the absorption of the well having no human Factor VIII added thereto from the absorption of the well having only the human Factor VIII added thereto as the control value (100%), and designating the peptide concentration at which the value 0.5 was obtained when the value obtained by subtracting the absorption of the well having only the peptide added thereto from the absorption of the well having a mixture of the human Factor VIII and the peptide added thereto were divided by the control value as the IC50 value, and evaluating the intensity to be ++ when the IC50 value was up to 1 μM, and + when the intensity was more than 1 μM but not more than 10 μM. It is to be noted that the specific affinity was evaluated to be none when the intensity was 10 μM or more.

- Binding of plasmid to the peptide (plasmid (pUC119)): fully bound
- IC50 [1]: < 1000 nM
Sequence: TRYLRIHPRSWVHQIALRLRYLRIHPRSWVHQIALRS [SEQ ID NO: 1]
- Nuclease resistance-imparting ability for natural (P=O form) oligonucleotide (nuclease Bal 31): exhibit nuclease resistance-imparting ability
